For 17 compounds, IC50 results are on record in patent publication US8901118B2, “Compounds and methods for kinase modulation, and indications therefor” (Plexxikon Inc., priority 2010, dated 2014).

The target of one test is T1, BCR-NTRK3 BaF3 cells (Homo sapiens, UniProt Q16288).
T1 construct: fused on or other part: P11274 (Breakpoint cluster region protein)
Description: BaF3 BCR-NTRK3 cell proliferation assay (ATPlite). Format: cell-based. The settings on record: read-out: Inhibition of Cell Proliferation IC50, BCR/BaF3 TrkC. The method, then: Compounds are assessed in a variety of cell based assays. For example BaF3 cells engineered with any of BCR-FMS, BCR-KIT, BCR-FLT3, BCR-NTRK1, BCR-NTRK2, and BCR-NTRK3, are used in cell proliferation assays to assess inhibitory activity of Fms, Kit, Flt-3, TrkA, TrkB, and TrkC, respectively. An MV-4-11 (leukemia) cell proliferation assay is used to assess inhibitory activity in Flt-3, and SKNSH (human neuroblastoma) cell proliferation assay is used to assess efficacy of Fms/Trk inhibitors. Additional cells may be assayed similarly to assess the efficacy of Fms/Trk inhibitors, such as MiaPaCa (human pancreatic cancer) and Capan-1 (human pancreatic carcinoma) cells. Reagent and assay conditions are as follows: • BaF3 cells: • Maintained in RPMI containing 10% FBS, 1% PenStrep, 1% NEAA, and 1% L-Glutamine, supplemented with 1 mg/mL G418 and 5% WEHI-CM (or recombinant murine IL-3). • Confluent cells are split 1:50 to 1:100 every 3-4 days. • MV-4-11 cells: • Maintained in Iscove's Modified Dulbecco's Medium containing 10% FBS. • Confluent cells are split 1:4 every 3-4 days. • SKNSH cells: RPMI containing 10% FBS. On day 1, cells are counted, then centrifuged in a conical tube for 5 minutes at 1000 rpm. The supernatant is removed and cells are re-suspended as follows: • BaF3: resuspend in growth media +1 mg/mL G418 (without WEHFIL-3) to 2×10^5 cells/mL. • MV-4-11: resuspend in growth media to 5×10^5 cells/mL. • SKNSH: resuspend in growth media to 2×10^4 cells/mL. The cells are plated (50 μL, 150 μL for SKNSH cells) in each well of a 96-well dish (Corning 3610) and incubated at 37° C. in 5% CO2 overnight, cells plated to a final concentration of cells as follows: • BaF3: 10,000 cells per well. • MV-4-11: 25,000 cells per well. • SKNSH: 3,000 cells per well. On day 2, compound at a maximum concentration of 5 mM is serially diluted 1:3 for a total of 8 point titration with DMSO as a control. A 1 μL aliquot of each dilution point is added to 249 μL growth media and 50 μL is added to a well containing cells, providing 10 μM compound for the maximum concentration point. The cells are incubated for 3 days at 37° C. in 5% CO2. For SKNSH cells, a 0.75 μL aliquot of appropriate dilution in DMSO is added to 150 μL of cells. On day 5, ATPlite 1 step Luminescence Assay System (Perkin Elmer #6016739) is brought to room temperature along with the cell cultures. ATPlite is added to each well as follows: • BaF3: 25 μL per well. • MV-4-11: 40 μL per well. • SKNSH: 20 μL per well. The cells are incubated at room temperature for 10 minutes, then luminescence is read on Safire reader. The measured luminescence correlates directly with cell number, such that the reading as a function of compound concentration is used to determine the IC50 value.
It is understood that the results of these assays may vary as assay conditions are varied. Inhibition levels determined under the conditions described herein represent a relative activity for the compounds tested under the specific conditions employed. The cell based assays are likely to show variability due to the complexity of the system and the sensitivity thereof to any changes in the assay conditions. […] Results for compounds that are tested and show substantially no inhibition below the highest tested concentration are represented as “-” in the tables below. In some instances, the compounds were not tested in all of the assays, or assay results were not valid, as indicated by NA in the tables below.
On the technique in general: In ATP-based viability assays light output follows the ATP content of the culture.

The target in a further test is TrkA kinase (Homo sapiens, UniProt P04629). Description: TrkA kinase biochemical activity assay (AlphaScreen). Particulars: 100 μM ATP; read-out: Biochemical Inhibition IC50 TrkA. As for the experimental part:
In one assay the biochemical activity IC50 values are determined with respect to inhibition of TrkA kinase activity, where inhibition of phosphorylation of a peptide substrate is measured as a function of compound concentration. Compounds to be tested, dissolved in DMSO (1 μL), are added to a white 384-well plate (Costar #3705). Working stocks of TrkA kinase (UBI), biotin-(E4Y)10 substrate (Upstate Biotech, Cat#12-440), and ATP (Sigma, Cat#A-3377) are prepared in 25 mM Hepes pH 7.5, 10 mM MnCl2, 1 mM DTT, 0.01% BSA, and 0.01% Tween-20. All components are added to the 384-well plate for a final concentration of 1 ng/well TrkA, 30 nM biotin-(E4Y)10 and 100 μM ATP in a volume of 20 μL. Each sample is at 5% DMSO. The plate is shaken for 1 minute at 1200 rpm, spun for 1 minute at 1000 rpm, then incubated for 40 minutes at room temperature. Just before use, working stocks of donor and acceptor beads from the AlphaScreen PY20 Detection Kit (PerkinElmer, Cat#676601M) are prepared in 25 mM Hepes pH 7.5, 100 mM EDTA. 0.01% BSA. Donor Beads solution (Streptavidin beads) is added (5 μL) to each well to final bead concentration of 10 μg/mL. The plate is incubated at room temperature for 20 minutes. Acceptor Beads solution (PY20 coated beads) are then added to each well (5 μL) to a final concentration of bead at 10 μg/mL. The plates are incubated at room temperature for 60 minutes. Fluorescence signal is recorded on the Envision reader. Phosphorylated substrate results in binding of the PY20 antibody and association of the donor and acceptor beads such that signal correlates with kinase activity. The signal vs. compound concentration is used to determine the IC50. Similar assays are used for TrkB and Trk C kinase.
In general terms: In Alpha technology, singlet oxygen from a donor bead excites a nearby acceptor bead.

pIC50: −log10 of the molar value. Where only a bound is given, the exact number is not on record here.

T1 sequence (Q16288 whole entry, the tested form may be a part): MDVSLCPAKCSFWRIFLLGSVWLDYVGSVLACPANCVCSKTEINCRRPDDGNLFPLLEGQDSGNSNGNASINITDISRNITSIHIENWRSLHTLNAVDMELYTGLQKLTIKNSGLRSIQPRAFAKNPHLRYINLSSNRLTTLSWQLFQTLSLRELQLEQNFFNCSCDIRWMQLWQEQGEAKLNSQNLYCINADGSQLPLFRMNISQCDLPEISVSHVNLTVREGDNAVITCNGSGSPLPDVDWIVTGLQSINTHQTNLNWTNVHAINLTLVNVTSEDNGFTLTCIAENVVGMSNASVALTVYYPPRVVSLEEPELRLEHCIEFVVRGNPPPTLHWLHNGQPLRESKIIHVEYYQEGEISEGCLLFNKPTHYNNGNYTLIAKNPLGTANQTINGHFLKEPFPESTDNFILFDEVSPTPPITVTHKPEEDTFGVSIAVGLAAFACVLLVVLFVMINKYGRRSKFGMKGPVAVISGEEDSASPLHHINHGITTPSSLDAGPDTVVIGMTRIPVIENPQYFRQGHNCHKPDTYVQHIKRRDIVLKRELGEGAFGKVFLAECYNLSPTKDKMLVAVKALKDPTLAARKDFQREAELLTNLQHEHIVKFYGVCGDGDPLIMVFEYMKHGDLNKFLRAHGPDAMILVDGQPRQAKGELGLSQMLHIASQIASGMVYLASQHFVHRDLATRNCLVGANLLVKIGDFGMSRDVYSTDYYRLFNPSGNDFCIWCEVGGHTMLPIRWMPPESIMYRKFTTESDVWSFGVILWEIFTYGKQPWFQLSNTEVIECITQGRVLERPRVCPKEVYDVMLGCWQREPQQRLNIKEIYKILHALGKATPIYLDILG
Sequence of TrkA kinase (P04629 33-796): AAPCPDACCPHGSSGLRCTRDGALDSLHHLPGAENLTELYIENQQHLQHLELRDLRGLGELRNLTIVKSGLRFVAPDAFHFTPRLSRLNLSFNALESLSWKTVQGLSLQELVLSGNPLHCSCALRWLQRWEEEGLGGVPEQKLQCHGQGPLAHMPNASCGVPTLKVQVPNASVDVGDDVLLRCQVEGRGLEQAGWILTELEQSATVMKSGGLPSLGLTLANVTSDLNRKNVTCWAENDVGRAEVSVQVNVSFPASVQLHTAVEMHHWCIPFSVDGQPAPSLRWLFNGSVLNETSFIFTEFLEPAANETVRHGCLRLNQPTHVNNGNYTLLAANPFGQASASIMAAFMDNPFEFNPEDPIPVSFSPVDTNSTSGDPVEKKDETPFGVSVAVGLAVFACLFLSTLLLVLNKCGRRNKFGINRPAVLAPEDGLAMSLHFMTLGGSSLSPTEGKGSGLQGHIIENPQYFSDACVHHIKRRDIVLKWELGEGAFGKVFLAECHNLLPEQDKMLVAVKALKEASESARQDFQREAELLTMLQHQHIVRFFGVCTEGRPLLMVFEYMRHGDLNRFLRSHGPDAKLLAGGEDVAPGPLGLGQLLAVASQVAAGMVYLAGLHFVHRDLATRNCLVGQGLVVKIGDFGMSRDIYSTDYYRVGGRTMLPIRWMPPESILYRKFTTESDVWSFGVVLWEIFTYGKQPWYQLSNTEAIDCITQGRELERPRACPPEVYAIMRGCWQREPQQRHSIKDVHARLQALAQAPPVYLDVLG

On to `O=C(c1ccc(NC2CCC(F)(F)CC2)nc1)c1c[nH]c2ncnc(NCC(F)(F)F)c12` [Compound P-4087, [6-[(4,4-difluorocyclohexyl)amino]-3-pyridyl]-[4-(2,2,2-trifluoroethylamino)-7H-pyrrolo[2,3-d]pyrimidin-5-yl]methanone], for which the pIC50 on BCR-NTRK3 BaF3 cells and on TrkA kinase was greater than 8.00 throughout.

For `CNc1ncnc2[nH]cc(C(=O)c3ccc(Nc4ccc(C5CC5)nc4)nc3F)c12` [Compound P-4094, [6-[(6-cyclopropyl-3-pyridyl)amino]-2-fluoro-3-pyridyl]-[4-(methylamino)-7H-pyrrolo[2,3-d]pyrimidin-5-yl]methanone], the pIC50 on BCR-NTRK3 BaF3 cells and on TrkA kinase was greater than 8.00 throughout.

As for `COc1ccc(Nc2ccc(C(=O)c3c[nH]c4ncnc(NC5CCC5)c34)c(F)n2)cn1` [Compound P-4076, [4-(cyclobutylamino)-7H-pyrrolo[2,3-d]pyrimidin-5-yl]-[2-fluoro-6-[(6-methoxy-3-pyridyl)amino]-3-pyridyl]methanone], the pIC50 at BCR-NTRK3 BaF3 cells and at TrkA kinase was greater than 8.00 each time.

As to `CCc1ccc(Nc2ccc(C(=O)c3c[nH]c4ncnc(NCC(F)(F)F)c34)c(F)n2)cn1` [Compound P-4120, [6-[(6-ethyl-3-pyridyl)amino]-2-fluoro-3-pyridyl]-[4-(2,2,2-trifluoroethylamino)-7H-pyrrolo[2,3-d]pyrimidin-5-yl]methanone], the pIC50 on BCR-NTRK3 BaF3 cells was greater than 8.00; on TrkA kinase, greater than 7.00.

Consider `Fc1ccc(Nc2ncc(Cc3c[nH]c4ncc(Cl)cc34)cn2)cc1` [Compound P-3012, [5-(5-Chloro-1H-pyrrolo[2,3-b]pyridin-3-ylmethyl)-pyrimidin-2-yl]-(4-fluoro-phenyl)-amine], for which the pIC50 on BCR-NTRK3 BaF3 cells is greater than 6.00; on TrkA kinase, less than 6.00.

Consider `COc1ccc(Nc2ccc(C(=O)c3c[nH]c4ncnc(NCC(F)(F)F)c34)c(F)n2)cn1` [Compound P-4084, [2-fluoro-6-[(6-methoxy-3-pyridyl)amino]-3-pyridyl]-[4-(2,2,2-trifluoroethylamino)-7H-pyrrolo[2,3-d]pyrimidin-5-yl]methanone], for which the pIC50 at BCR-NTRK3 BaF3 cells and at TrkA kinase was greater than 8.00 in each case.

Consider `COc1ccc(Nc2ccc(C(=O)c3c[nH]c4ncnc(NCC5CC5)c34)c(F)n2)cn1` [Compound P-4067, [4-(cyclopropylmethylamino)-7H-pyrrolo[2,3-d]pyrimidin-5-yl]-[2-fluoro-6-[(6-methoxy-3-pyridyl)amino]-3-pyridyl]methanone], for which the pIC50 at BCR-NTRK3 BaF3 cells and at TrkA kinase was greater than 8.00 throughout.

Take `COc1cncc(Nc2ccc(C(=O)c3c[nH]c4ncnc(NC5CCCCC5)c34)c(F)n2)c1` [Compound P-4104, [4-(cyclohexylamino)-7H-pyrrolo[2,3-d]pyrimidin-5-yl]-[2-fluoro-6-[(5-methoxy-3-pyridyl)amino]-3-pyridyl]methanone]: the pIC50 on BCR-NTRK3 BaF3 cells and on TrkA kinase was greater than 7.00 in each case.

As for `O=C(c1ccc(Nc2ccc(C(F)(F)F)nc2)nc1F)c1c[nH]c2ncnc(NC3CC3)c12` [Compound P-4091, [4-(cyclopropylamino)-7H-pyrrolo[2,3-d]pyrimidin-5-yl]-[2-fluoro-6-[[6-(trifluoromethyl)-3-pyridyl]amino]-3-pyridyl]methanone], the pIC50 at BCR-NTRK3 BaF3 cells and on TrkA kinase was greater than 8.00 throughout.

For the compound `Clc1ccc(Nc2ncc(Cc3c[nH]c4ncc(Cl)cc34)cn2)cc1` [Compound P-3011, (4-Chloro-phenyl)-[5-(5-chloro-1H-pyrrolo[2,3-b]pyridin-3-ylmethyl)-pyrimidin-2-yl]-amine], the pIC50 at BCR-NTRK3 BaF3 cells was greater than 7.00; at TrkA kinase, less than 6.00.

As for `Cc1ccc(Nc2ccc(C(=O)c3c[nH]c4ncnc(NCC(F)(F)F)c34)c(F)n2)cn1` [Compound P-4112, [2-fluoro-6-[(6-methyl-3-pyridyl)amino]-3-pyridyl]-[4-(2,2,2-trifluoroethylamino)-7H-pyrrolo[2,3-d]pyrimidin-5-yl]methanone], the results for the pIC50 on BCR-NTRK3 BaF3 cells and at TrkA kinase were greater than 8.00 and greater than 7.00, respectively.

Turning to `O=C(c1ccc(Nc2ccc(C3CC3)nc2)nc1F)c1c[nH]c2ncnc(NC3CC3)c12` [Compound P-4093, [4-(cyclopropylamino)-7H-pyrrolo[2,3-d]pyrimidin-5-yl]-[6-[(6-cyclopropyl-3-pyridyl)amino]-2-fluoro-3-pyridyl]methanone], the pIC50 at BCR-NTRK3 BaF3 cells and on TrkA kinase was greater than 8.00 in each case.

Take `COc1ccc(Nc2ccc(C(=O)c3c[nH]c4ncnc(NC5CCCC5)c34)c(F)n2)cn1` [Compound P-4075, [4-(cyclopentylamino)-7H-pyrrolo[2,3-d]pyrimidin-5-yl]-[2-fluoro-6-[(6-methoxy-3-pyridyl)amino]-3-pyridyl]methanone]: the pIC50 on BCR-NTRK3 BaF3 cells and at TrkA kinase was greater than 8.00 each time.

Consider `COc1ccc(Nc2ccc(C(=O)c3c[nH]c4ncnc(NC5CCCCC5)c34)c(F)n2)cn1` [Compound P-4082, [4-(cyclohexylamino)-7H-pyrrolo[2,3-d]pyrimidin-5-yl]-[2-fluoro-6-[(6-methoxy-3-pyridyl)amino]-3-pyridyl]methanone], for which the pIC50 on BCR-NTRK3 BaF3 cells and on TrkA kinase was greater than 8.00 each time.

For the compound `CCc1ccc(Nc2ccc(C(=O)c3c[nH]c4ncnc(NCC(C)C)c34)c(F)n2)cn1` [Compound P-4121, [6-[(6-ethyl-3-pyridyl)amino]-2-fluoro-3-pyridyl]-[4-(isobutylamino)-7H-pyrrolo[2,3-d]pyrimidin-5-yl]methanone], the pIC50 was greater than 8.00 on BCR-NTRK3 BaF3 cells and greater than 7.00 on TrkA kinase.

Regarding `Clc1cnc2[nH]cc(Cc3cnc(Nc4ccccc4Cl)nc3)c2c1` [Compound P-3015, (2-Chloro-phenyl)-[5-(5-chloro-1H-pyrrolo[2,3-b]pyridin-3-ylmethyl)-pyrimidin-2-yl]-amine], the values for the pIC50 on BCR-NTRK3 BaF3 cells and on TrkA kinase were less than 5.00 and less than 6.00, respectively.

In the case of `CCCNc1ncnc2[nH]cc(C(=O)c3ccc(Nc4ccc(CC)nc4)nc3F)c12` [Compound P-4122, [6-[(6-ethyl-3-pyridyl)amino]-2-fluoro-3-pyridyl]-[4-(propylamino)-7H-pyrrolo[2,3-d]pyrimidin-5-yl]methanone], the pIC50 at BCR-NTRK3 BaF3 cells and on TrkA kinase was greater than 8.00 in each case.
